# Measurements from patent US9655865B2, “Therapeutic treatment for metabolic syndrome, type 2 diabetes, obesity, or prediabetes” (VeroScience, LLC, priority 2002, dated 2017).
# Experiments:
# [1] = test system: Female ob/ob obese diabetic mice; assay: Bromocriptine and GBR 12909, alone and combined, 14 days in ob/ob mice (Example 8); type: in vivo; details: bromocriptine 10 mg/kg, GBR 12909 20 mg/kg, daily 14 days, FIG. 10
# Description: The effects of adding GBR (a selective dopamine reuptake inhibitor) to bromocriptine (a dopamine D2 receptor agonist that can reduce central norepinephrine neuronal activity) in an effort to circumvent the impact of the D2 receptor agonist effect to reduce endogenous dopamine and to therefore improve metabolic disorders was examined in ob/ob mice treated with either vehicle, bromocriptine (BC) (10 mg/kg), GBR 12909 (20 mg/kg) or bromocriptine (10 mg/kg) plus GBR 12909 (20 mg/kg). Female ob/ob obese diabetic mice were fed standard chow and different groups of animals (n=5-7 group) were treated daily for 14 days with bromocriptine (to reduce norepinephrine neuronal activity) (10 mg/kg), GBR 12909 (to increase dopaminergic neuronal activity) (20 mg/kg) or with bromocriptine (10 mg/kg) plus GBR 12909 (20 mg/kg), or vehicle. […] BC had no effect on blood glucose level. The BC/GBR effect on blood glucose level was more than additive of the individual effects of BC and GBR combined (FIG. 10)
# [2] = test system: mice fed a high fat diet for 20 weeks; assay: Bromocriptine and GBR 12909, alone and combined, in high fat diet mice (Example 12); type: in vivo; details: bromocriptine 5 mg/kg, GBR 12909 5 mg/kg
# Description: The effects of adding GBR (a selective dopamine reuptake inhibitor) to bromocriptine (a dopamine D2 receptor agonist that can reduce central norepinephrine neuronal activity) in an effort to circumvent the impact of the D2 receptor agonist effect to reduce endogenous dopamine and to therefore improve metabolic disorders was examined in mice fed a high fat diet for 20 weeks and then treated with either vehicle, bromocriptine (BC) (5 mg/kg), GBR 12909 (5 mg/kg) or bromocriptine (5 mg/kg) plus GBR 12909 (5 mg/kg). […] Again, increasing central dopaminergic neuronal activity and decreasing central norepinephrine neuronal activity simultaneously produces synergistic reductions in metabolic disorders. […] BC alone had no effect on plasma insulin level (FIG. 21).
smiles,measurement,setting,value
CC(C)C[C@H]1C(=O)N2CCC[C@H]2[C@]2(O)O[C@](NC(=O)[C@@H]3C=C4c5cccc6[nH]c(Br)c(c56)C[C@H]4N(C)C3)(C(C)C)C(=O)N12 [bromocriptine],blood glucose level,[1],no effect
same,plasma insulin level,[2]; FIG. 21,no effect
same,HOMA-IR (insulin resistance),[2]; FIG. 22,no significant effect
